Results on 29 compounds are retold here after US8618095B2 (Rigel Pharmaceuticals, Inc., priority 2010, dated 2013).

Counter-ions that a name gives are not always drawn.

The subject of one test is Human mast cells (CHMC). Kind of test: LD Tryptase release assay in CHMC (mast cell activation induced by FcγR cross-linking). The test is classed as cell-based. As to conditions: Homo sapiens, Mast cell, anti-IgG stimulation, activity of tryptase released upon degranulation. In a few lines: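 Mast cells derived from CD38-negative progenitors were preincubated 1 h at 37 °C with compound in HEPES-buffered saline (pH 7.4, 0.1% BSA, compound diluted in buffer with 2% MeOH/1% DMSO). Cells were then stimulated 60 min with anti-human IgG (final 1 μg/mL). Released tryptase was measured on Z-Ala-Lys-Arg-AMC (30 min, room temperature, 355/460 nm) to give the IC50.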
With `CC1(C)Oc2ccc(Nc3nc(Nc4ccc(N5CCOC5=O)cc4)ncc3F)nc2NC1=O` [Compound 91, N4-(2,2-dimethyl-3,4-dihydro-3-oxo-2H-pyrido[3,2-b][1,4]oxazin-6-yl)-5-fluoro-N2-[4-(2-oxooxazolidin-3-yl)phenyl]-2,4-pyrimidinediamine], the half-inhibitory concentration (IC50) (in general, the concentration that inhibits the measured activity by half) was < 100 nM.
The same measure, in the same setting: for `CC1(C)Oc2ccc(Nc3nc(Nc4ccc(N5C[C@@H]6C[C@H]5CO6)nc4)ncc3F)nc2NC1=O` [Compound 92, N4-(2,2-dimethyl-3,4-dihydro-3-oxo-2H-pyrido[3,2-b][1,4]oxazin-6-yl)-5-fluoro-N2-[6-((1S,4S)-5-oxa-2-aza-bicyclo[2.2.1]heptan-2-yl)pyridin-3-yl]-2,4-pyrimidinediamine] the value was < 100 nM; for `COC1CCN(c2ccc(Nc3ncc(F)c(Nc4ccc5c(n4)NC(=O)C(C)(C)O5)n3)cn2)C1` (stereo in doubt) [Compound 56, N4-(2,2-dimethyl-3,4-dihydro-3-oxo-2H-pyrido[3,2-b][1,4]oxazin-6-yl)-5-fluoro-N2-[6-((3R)-3-methoxypyrrolidin-1-yl)pyridin-3-yl]-2,4-pyrimidinediamine], 100 to 500 nM.
Still for that read-out and setting: to `C=C1COCCN1c1ccc(Nc2ncc(F)c(Nc3ccc4c(n3)NC(=O)C(C)(C)O4)n2)cn1` [Compound 58, N4-(2,2-dimethyl-3,4-dihydro-3-oxo-2H-pyrido[3,2-b][1,4]oxazin-6-yl)-5-fluoro-N2-[6-(3-methylenemorpholino)pyridin-3-yl]-2,4-pyrimidinediamine] belongs 1000 to 100000 nM; to `Cc1cc(Nc2ncc(F)c(Nc3ccc4c(n3)NC(=O)CO4)n2)ccc1N1CCOCC1` [Compound 32], < 100 nM.
For `CC1(C)Oc2ccc(Nc3nc(Nc4ccc(C5CCOCC5)cc4)ncc3F)nc2NC1=O` [Compound 47, N4-(2,2-dimethyl-3,4-dihydro-3-oxo-2H-pyrido[3,2-b][1,4]oxazin-6-yl)-5-fluoro-N2-[4-tetrahydropyranophenyl]-2,4-pyrimidinediamine], the concentration for half-maximal inhibition (IC50) was 1000 to 100000 nM.
On the same count and under the same terms, to `C[C@@H]1COCCN1c1ccc(Nc2ncc(F)c(Nc3ccc4c(n3)NC(=O)CO4)n2)cc1` [Compound 82] belongs 100 to 500 nM; to `CC1(C)Oc2ccc(Nc3nc(Nc4ccc(N5CCOCC5CO)c(F)c4)ncc3F)nc2NC1=O` (centres unmarked) [Compound 89, N4-(2,2-dimethyl-3,4-dihydro-3-oxo-2H-pyrido[3,2-b][1,4]oxazin-6-yl)-5-fluoro-N2-[3-fluoro-4-(3-(hydroxymethyl)morpholino)phenyl]-2,4-pyrimidinediamine], 100 to 500 nM; to `CC1(C)Oc2ccc(Nc3nc(Nc4ccc(N5CCN6CCC5CC6)nc4)ncc3F)nc2NC1=O` [Compound 62, N4-(2,2-dimethyl-3,4-dihydro-3-oxo-2H-pyrido[3,2-b][1,4]oxazin-6-yl)-5-fluoro-N2-[6-(1,4-diazabicyclo[3.2.2]nonan-4-yl)pyridin-3-yl]-2,4-pyrimidinediamine], 500 to 1000 nM.
With `CC1(C)Oc2ccc(Nc3nc(Nc4ccc(N5CCC(N)CC5)cc4)ncc3F)nc2NC1=O` [Compound 90, N4-(2,2-dimethyl-3,4-dihydro-3-oxo-2H-pyrido[3,2-b][1,4]oxazin-6-yl)-5-fluoro-N2-[4-(4-aminopiperidin-1-yl)phenyl]-2,4-pyrimidinediamine], the IC50 was in the range of 100 to 500 nM.
On the same count and under the same terms, for `CCOCC1COCCN1c1ccc(Nc2ncc(F)c(Nc3ccc4c(n3)NC(=O)C(C)(C)O4)n2)cn1` (centres unmarked) [Compound 59, N4-(2,2-dimethyl-3,4-dihydro-3-oxo-2H-pyrido[3,2-b][1,4]oxazin-6-yl)-5-fluoro-N2-[6-(3-(ethoxymethyl)morpholino)pyridin-3-yl]-2,4-pyrimidinediamine] the value was 100 to 500 nM; for `CC1(C)CN(c2ccc(Nc3ncc(F)c(Nc4ccc5c(n4)NC(=O)C4(CCC4)O5)n3)cc2)CCO1` [Compound 124, N2-[4-(2,2-Dimethylmorpholino)phenyl]-5-fluoro-N4-(3′-oxo-3′,4′-dihydrospiro[cyclobutane-1,2′-pyrido[3,2-b][1,4]oxazine]-6-yl)-2,4-pyrimidinediamine], 1000 to 100000 nM.
Still for that read-out and setting: for `C[C@@H]1CN(c2ccc(Nc3ncc(F)c(Nc4ccc5c(n4)NC(=O)C(C)(C)O5)n3)cn2)CCO1` [Compound 7, N4-(2,2-dimethyl-3,4-dihydro-3-oxo-2H-pyrido[3,2-b][1,4]oxazin-6-yl)-5-fluoro-N2-1-2,4-pyrimidinediamine] the value was 100 to 500 nM.
On the same count and under the same terms, for `CC1(C)Oc2ccc(Nc3nc(Nc4ccc(N5CCC6(CC5)COC6)cc4)ncc3F)nc2NC1=O` [Compound 158, N4-(2,2-dimethyl-3,4-dihydro-3-oxo-2H-pyrido[3,2-b][1,4]oxazin-6-yl)-5-fluoro-N2-[4-(2-oxa-7-azaspiro[3.5]nonan-7-yl)phenyl]-2,4-pyrimidinediamine] the value was 100 to 500 nM; for `O=C1COc2ccc(Nc3nc(Nc4ccc5c(c4)OCC4COCCN54)ncc3F)nc2N1` (centres unmarked) [Compound 84, N4-(3,4-dihydro-3-oxo-2H-pyrido[3,2-b][1,4]oxazin-6-yl)-5-fluoro-N2-[1,2,4a,5-tetrahydro-4H-[1,4]oxazino[3,4-c][1,4]benzoxazin-8-yl]-2,4-pyrimidinediamine], 100 to 500 nM.
Turning to `CCOC[C@@H]1CN(c2ccc(Nc3ncc(F)c(Nc4ccc5c(n4)NC(=O)C(C)(C)O5)n3)cn2)CCO1` [Compound 101, N4-(2,2-dimethyl-3,4-dihydro-3-oxo-2H-pyrido[3,2-b][1,4]oxazin-6-yl)-N2-[6-(((2S)-2-ethoxymethyl)morpholino)pyridin-3-yl]-5-fluoro-2,4-pyrimidinediamine], the IC50 lay within 100 to 500 nM.
Same read-out and setting: for `CC1(C)Oc2ccc(Nc3nc(Nc4ccc(N5CCC(N6CCOCC6)CC5)nc4)ncc3F)nc2NC1=O` [Compound 60, N4-(2,2-dimethyl-3,4-dihydro-3-oxo-2H-pyrido[3,2-b][1,4]oxazin-6-yl)-5-fluoro-N2-[6-(4-morpholinopiperidin-1-yl)pyridin-3-yl]-2,4-pyrimidinediamine] the value was 100 to 500 nM; for `CCCN1C(=O)COc2ccc(Nc3nc(Nc4ccc(N5CCOCC5)c(C(F)(F)F)c4)ncc3F)nc21` [Compound 148, N4-(3,4-dihydro-3-oxo-4-propyl-2H-pyrido[3,2-b][1,4]oxazin-6-yl)-5-fluoro-N2-[4-morpholino-3-(trifluoromethyl)phenyl]-2,4-pyrimidinediamine], < 100 nM.
Same read-out and setting: to `CC1(C)Oc2ccc(Nc3nc(Nc4ccc(N5CC(O)C5)nc4)ncc3F)nc2NC1=O` [Compound 146, N4-(2,2-dimethyl-3,4-dihydro-3-oxo-2H-pyrido[3,2-b][1,4]oxazin-6-yl)-5-fluoro-N2-[6-(3-hydroxyazetidin-1-yl)pyridin-3-yl]-2,4-pyrimidinediamine] belongs 1000 to 100000 nM; to `COCCN(C)c1ccc(Nc2ncc(F)c(Nc3ccc4c(n3)NC(=O)C(C)(C)O4)n2)cn1` [Compound 99], 100 to 500 nM; to `CC1(C)Oc2ccc(Nc3nc(Nc4ccc(NC5CCOCC5)nc4)ncc3F)nc2NC1=O` [Compound 134], < 100 nM.
The same measure, in the same setting: to `[2H]C1([2H])OC([2H])([2H])C([2H])([2H])N(c2ccc(Nc3ncc(F)c(Nc4ccc5c(n4)NC(=O)CO5)n3)cn2)C1([2H])[2H]` [Compound 106, N4-(3,4-dihydro-3-oxo-2H-pyrido[3,2-b][1,4]oxazin-6-yl)-5-fluoro-N2-[6-(2,2,3,3,5,5,6,6-d8-morpholino)pyridin-3-yl]-2,4-pyrimidinediamine] belongs < 100 nM; to `COc1cc(Nc2ncc(F)c(Nc3ccc4c(n3)NC(=O)C(C)(C)O4)n2)cnc1N1CCOCC1` [Compound 21, N4-(2,2-dimethyl-3,4-dihydro-3-oxo-2H-pyrido[3,2-b][1,4]oxazin-6-yl)-5-fluoro-N2-[5-methoxy-6-morpholinopyridin-3-yl]-2,4-pyrimidinediamine], 100 to 500 nM; to `CC(C)[C@@H]1COC(=O)N1c1ccc(Nc2ncc(F)c(Nc3ccc4c(n3)NC(=O)C(C)(C)O4)n2)cn1` [Compound 73, N4-(2,2-dimethyl-3,4-dihydro-3-oxo-2H-pyrido[3,2-b][1,4]oxazin-6-yl)-5-fluoro-N2-[6-((4R)-4-isopropyl-2-oxooxazolidin-3-yl)pyridin-3-yl]-2,4-pyrimidinediamine], 100 to 500 nM.
Regarding `CC1(C)CN(c2ccc(Nc3ncc(F)c(Nc4ccc5c(n4)NC(=O)C(C)(C)O5)n3)cc2)CCO1` [Compound 116, N4-(2,2-dimethyl-3,4-dihydro-3-oxo-2H-pyrido[3,2-b][1,4]oxazin-6-yl)-N2-[4-(2,2-dimethylmorpholino)phenyl]-5-fluoro-2,4-pyrimidinediamine], the IC50 was < 100 nM.
On the same count and under the same terms, for `CC1(C)Oc2ccc(Nc3nc(Nc4ccc(C5CCOCC5)nc4)ncc3F)nc2NC1=O` [Compound 22, N4-(2,2-dimethyl-3,4-dihydro-3-oxo-2H-pyrido[3,2-b][1,4]oxazin-6-yl)-5-fluoro-N2-[6-tetrahydropyranopyridin-3-yl]-2,4-pyrimidinediamine] the value was 100 to 500 nM.
The same measure, in the same setting: to `CN(C)C[C@@H]1CN(c2ccc(Nc3ncc(F)c(Nc4ccc5c(n4)NC(=O)C(C)(C)O5)n3)cc2)CCO1` [Compound 122] belongs 100 to 500 nM.

Staying with this test, now noted: anti-IgG stimulation, activity of tryptase released upon degranulation.
For the compound `CC1(C)Oc2ccc(Nc3nc(Nc4ccc(N5CCOCC5)nc4)ncc3F)nc2NC1=O` [Compound 141, N4-(2,2-dimethyl-3,4-dihydro-3-oxo-2H-pyrido[3,2-b][1,4]oxazin-6-yl)-5-fluoro-N2-[6-morpholinopyridin-3-yl]-2,4-pyrimidinediamine benzenesulfonic acid salt], the IC50 lay within 100 to 500 nM.
Still for that read-out and setting: for `CC1(C)Oc2ccc(Nc3nc(Nc4ccc(N5CCOCC5)nc4)ncc3F)nc2NC1=O` [Compound 142, N4-(2,2-dimethyl-3,4-dihydro-3-oxo-2H-pyrido[3,2-b][1,4]oxazin-6-yl)-5-fluoro-N2-[6-morpholinopyridin-3-yl]-2,4-pyrimidinediamine ethanesulfonic acid salt] the value was 100 to 500 nM.
